# According to ChEMBL document CHEMBL1275264, “The GABA(A) receptor as a target for photochromic molecules” (Bioorg Med Chem, 2010):
# How the values were obtained:
# [1] = biological target: T1, GABA-A receptor; alpha-5/beta-3/gamma-2 (Homo sapiens, UniProt P18507+P28472+P31644); experiment: Binding affinity to human recombinant GABA alpha-5-beta-3-gamma-2 receptor; format: protein-complex assay
# T1 sequence (P18507 whole entry): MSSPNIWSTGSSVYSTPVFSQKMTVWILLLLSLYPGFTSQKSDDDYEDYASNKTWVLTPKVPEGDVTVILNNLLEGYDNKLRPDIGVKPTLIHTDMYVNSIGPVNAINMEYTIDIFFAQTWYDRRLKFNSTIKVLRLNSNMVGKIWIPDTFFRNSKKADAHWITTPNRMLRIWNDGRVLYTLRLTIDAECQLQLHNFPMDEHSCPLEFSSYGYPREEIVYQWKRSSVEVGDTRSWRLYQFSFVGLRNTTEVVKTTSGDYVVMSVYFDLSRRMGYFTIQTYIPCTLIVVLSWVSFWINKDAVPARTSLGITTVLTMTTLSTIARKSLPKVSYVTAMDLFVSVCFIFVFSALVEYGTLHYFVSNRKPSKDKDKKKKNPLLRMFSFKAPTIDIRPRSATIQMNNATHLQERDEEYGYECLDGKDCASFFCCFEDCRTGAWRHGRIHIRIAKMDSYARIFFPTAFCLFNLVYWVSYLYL
# T1 sequence (P28472 whole entry): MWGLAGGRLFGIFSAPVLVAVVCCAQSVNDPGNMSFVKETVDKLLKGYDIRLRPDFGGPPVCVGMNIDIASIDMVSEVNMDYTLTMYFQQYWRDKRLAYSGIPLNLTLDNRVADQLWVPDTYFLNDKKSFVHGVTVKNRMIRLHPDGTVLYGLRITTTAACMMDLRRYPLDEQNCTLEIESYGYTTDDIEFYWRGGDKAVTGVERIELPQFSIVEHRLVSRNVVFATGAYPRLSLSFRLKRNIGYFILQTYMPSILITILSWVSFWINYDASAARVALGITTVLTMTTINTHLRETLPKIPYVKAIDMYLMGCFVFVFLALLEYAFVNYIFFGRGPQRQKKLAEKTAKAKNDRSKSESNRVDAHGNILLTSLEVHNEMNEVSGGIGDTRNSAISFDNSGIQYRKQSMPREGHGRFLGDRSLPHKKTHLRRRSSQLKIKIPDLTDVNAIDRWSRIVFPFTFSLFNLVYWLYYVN
# T1 sequence (P31644 whole entry): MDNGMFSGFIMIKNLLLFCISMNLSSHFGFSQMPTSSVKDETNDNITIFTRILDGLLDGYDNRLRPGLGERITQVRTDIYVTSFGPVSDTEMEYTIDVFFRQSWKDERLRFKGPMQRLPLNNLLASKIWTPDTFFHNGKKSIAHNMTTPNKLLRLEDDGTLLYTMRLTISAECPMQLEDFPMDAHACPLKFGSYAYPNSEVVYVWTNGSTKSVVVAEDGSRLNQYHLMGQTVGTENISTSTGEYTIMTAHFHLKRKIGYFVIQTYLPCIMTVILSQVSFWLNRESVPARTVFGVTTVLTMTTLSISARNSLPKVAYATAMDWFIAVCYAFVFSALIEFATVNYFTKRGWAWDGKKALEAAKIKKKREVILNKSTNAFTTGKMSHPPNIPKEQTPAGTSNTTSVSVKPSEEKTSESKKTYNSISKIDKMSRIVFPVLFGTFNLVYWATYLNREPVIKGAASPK
# [2] = biological target: GABA A receptor alpha-4/beta-3/gamma-2 (Homo sapiens, UniProt P18507+P28472+P48169); experiment: Binding affinity to human recombinant GABA alpha-4-beta-3-gamma-2 receptor; format: protein-complex assay
# GABA A receptor alpha-4/beta-3/gamma-2, sequence (P48169 whole entry, one chain of several): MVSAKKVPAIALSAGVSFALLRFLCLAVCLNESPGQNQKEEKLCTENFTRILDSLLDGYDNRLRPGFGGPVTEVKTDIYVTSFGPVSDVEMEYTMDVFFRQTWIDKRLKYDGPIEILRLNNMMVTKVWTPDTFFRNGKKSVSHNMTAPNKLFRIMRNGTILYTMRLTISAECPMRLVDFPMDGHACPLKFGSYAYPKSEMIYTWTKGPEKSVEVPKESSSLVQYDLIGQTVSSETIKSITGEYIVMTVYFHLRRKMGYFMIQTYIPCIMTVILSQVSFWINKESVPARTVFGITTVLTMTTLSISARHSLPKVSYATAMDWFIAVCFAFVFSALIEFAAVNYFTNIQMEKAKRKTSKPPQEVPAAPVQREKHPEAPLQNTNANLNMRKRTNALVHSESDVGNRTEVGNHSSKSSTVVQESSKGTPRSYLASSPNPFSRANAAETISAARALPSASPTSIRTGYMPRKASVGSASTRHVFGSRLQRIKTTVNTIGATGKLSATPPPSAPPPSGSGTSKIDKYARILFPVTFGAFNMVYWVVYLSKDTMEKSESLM
Compound,Ki [1],Ki [2]
CC(=O)c1ncn2c1CN(C)C(=O)c1cc(Cl)ccc1-2,29500 nM,2610 nM
COCc1ncn2c1CN(C)C(=O)c1cc(Cl)ccc1-2,> 300 nM,38.8 nM
